We go through 2 molecules from article PMC11331414, “Small molecule telomerase inhibitors are also potent inhibitors of telomeric C-strand synthesis” (RNA, 2024).

One test deals with T1, telomerase (Homo sapiens, UniProt O14746).
T1 construct: 3xFLAG (N); made in house; host or cells: HEK293T
Description: Telomerase inhibition (direct primer extension, 3xTEL primer). Format: biochemical.

Test [1] concerns the target CST–PP (CST–polymerase α–primase). Description: CST–PP C-strand synthesis inhibition. In kind it is biochemical, human. As to conditions: for IC50: 25 nM CST–PP, 25 nM template, read-out: IC50synthesis. The method, then: Telomeric C-strand synthesis was performed with CST–PP purified from cultured human cells (HEK293T), a synthetic telomeric DNA template (9xTEL, (TTAGGG)9), ribonucleotides to allow primase activity, and deoxynucleotides including α-^32P-dATP to monitor polymerase α extension. To test whether TMPyP4 would inhibit DNA synthesis by CST–PP, we preincubated 25 nM 9xTEL with increasing concentrations of the drug, then added 25 nM CST–PP and nucleotides and observed C-strand synthesis by gel electrophoresis (Fig. 1A, left). To serve as a size marker and recovery control, a small fraction of the template (T) was radiolabeled. The expected synthesis products were observed, all smaller than the 54-nt template (Supplemental Fig. S2A). The limited extension reflects the limited processivity of CST–PP, and the 6-nt ladder of products is due to multiple initiation sites on the 6-nt repeat template ([Zaug et al. 2022]).
(§1) CST–PP was purified from HEK 293T/17 cells (CRL-11268, ATCC), as previously described ([Zaug et al. 2021], [2022]). Briefly, cells were transfected with 3xFLAG-CTC1, Myc-STN1, and HA-TEN1 at a ratio of 1:1:1, expanded and grown for 48 h, and collected. The complex was purified by successive anti-FLAG and anti-HA immunoprecipitation. Endogenous Polα–primase copurifies with CST ([Zaug et al. 2022]). The purity of the complex was verified by silver staining and concentrations were determined by western blot analysis ([Zaug et al. 2022]).
Reactions (10 μL) contained 25 nM CST–PP and 25 nM single-stranded template DNA in 1× reaction buffer (50 mM Tris-HCl pH 8.0, 2 mM MgCl2, 1 mM spermidine, and 5 mM β-mercaptoethanol), 1× Na^+/K^+ (75 mM KCl and 50 mM NaCl) or 1× Li^+ (125 mM LiCl) salts, rNTPs (0.2 mM each CTP, UTP, ATP), and dNTPs (0.5 mM dCTP, 0.5 mM dTTP, 0.33 μM [α-^32P]dATP [300 Ci mmol^–1], 0.29 μM unlabeled dATP), the indicated concentrations of TMPyP4 or PDS, and 0.2% DMSO.
DNA templates and small molecule dilutions were prepared fresh immediately before each use. A small proportion of the template DNA was 5′ radiolabeled (typically ∼0.1–0.5 nM, 5000 counts per minute per reaction) to serve as a recovery and loading control and internal size marker. CST–PP generated more products with 9xnoGG in Na^+/K^+ than in other conditions, so in that condition, 5× more radioactive template was used (keeping total DNA at 25 nM) so that the control signal was not overwhelmed by the product signal. DNA templates in buffer and designated salt were placed in 95°C heat block for 5 min and cooled at room temperature for 30 min. Dilutions of PDS or TMPyP4 in 1% DMSO (or 1% DMSO only for no inhibitor condition) were added (final 0.2% DMSO), and mixtures were incubated in 30°C water bath for 30 min. CST–PP was added and mixtures were returned to water bath for 30 min. NTPs were added and the reaction proceeded at 30°C for 1 h; 50 µL stop mix (3.6 M ammonium acetate and 0.2 mg mL^−1 glycogen) was then added.
Quenched reactions were cleaned up using the Oligo Clean & Concentrator kit (D4060, Zymo) and eluted in water. An equivalent volume of 2× loading dye (95% formamide, 20 mM EDTA, and 0.05% each bromophenol blue and xylene cyanol) was added. Samples were boiled for 5 min, then loaded on a 10% acrylamide, 7 M urea, and 1× TBE gel. Molecular weight ladders were generated by telomerase as above (no small molecule). Gels were run at 30 W until the bromophenol blue was ∼2 in from the bottom (∼1–1.5 h) and dried on Whatman 3 mm paper at 80°C under a vacuum for 15–30 min. Gels were then exposed to a phosphorimager screen, which was imaged with Amersham Typhoon scanner 5 and analyzed using ImageQuant. The intensity of synthesis was normalized to the intensity of the loading control in the same lane. Relative synthesis was calculated by dividing normalized synthesis at each inhibitor concentration by the normalized synthesis without inhibitor. […]

Test [2] has the same target. Description: CST–PP binding to template DNA (EMSA) inhibition. More on the design: species or system human. As to conditions: 25 nM CST–PP, 25 nM template, read-out: IC50binding. The method, then:
To test directly if TMPyP4 inhibited CST–PP by preventing association with the templates, we next measured the effect of the drug on the proportion of DNA bound by CST–PP. We used the same conditions as in the synthesis reaction and observed that the DNA was about half bound in the absence of an inhibitor. We prepared DNA templates with an increasing concentration of TMPyP4 as before, then incubated with CST–PP and analyzed by EMSA (electrophoretic mobility shift assay) (Fig. 2A). By normalizing the fraction of DNA bound at each concentration of inhibitor to fraction bound without drug, we determined IC50 values for binding (IC50binding) in the two salts for both 9xTEL and 9xnoGG (Fig. 2B; Table 1).
as §1
Binding reactions were prepared identically to synthesis reactions, except glycerol (10% final) was added in place of the NTP mix. DNA and small molecules were incubated for 30 min at 30°C, then CST was added and incubation continued for another hour. Samples were loaded onto a 1× TBE 0.7% agarose gel and run at 70 V for 75 min at 4°C. The gels were placed on Hybond N^+ atop Whatman 3 mm paper and dried under a vacuum at 80°C for 1 h. They were then exposed to a phosphorimager screen, which was imaged using an Amersham Typhoon scanner 5. Binding was analyzed using ImageQuant; fraction bound was determined by dividing the number of counts in the bound band by the total number of counts in the lane, not including the well. Relative binding was calculated by dividing the fraction bound at each inhibitor concentration by the fraction bound without inhibitor. Results were plotted and analyzed as above.
For orientation: In EMSA bound probe runs differently from free probe, usually more slowly.

A further test deals with 9xTEL DNA (TTAGGG)9. Put plainly: Circular dichroism thermal melt of 9xTEL DNA. More on the design: species or system human. As to conditions: 10:1 small molecule:DNA. The source says:
As the native gels were insufficient to identify the types of secondary structures formed by the ssDNA templates, we turned to circular dichroism (CD) for more information. We first examined 9xTEL in NaCl; with positive peaks at 290 and 240 nm and a negative peak at 260 nm, the spectrum matched published spectra for antiparallel GQ formation (Fig. 5A). We also collected spectra of 9xTEL in Na^+/K^+ and in K^+ only, which were both consistent with hybrid GQ (Supplemental Fig. S4A,B). Then we added TMPyP4 to 9xTEL at a ratio of 10:1 in each salt condition. […] We performed thermal melts of 9xTEL in Na^+ with and without TMPyP4, monitoring the signal from the positive peak at 290 nm and the negative peak at 260 nm (Fig. 5B). We found the drug increased the melting temperature (Tm) by about 10°C. Thus, 9xTEL DNA in Na^+ forms an antiparallel GQ that is stabilized by TMPyP4, consistent with previous studies ([Martino et al. 2009]).
(§2) CD samples contained 250 nM DNA in 75 mM NaCl and 50 mM KCl (Na^+/K^+), or 125 mM NaCl, KCl, or LiCl, 0.2× reaction buffer (10 mM Tris-HCl pH 8.0, 0.4 mM MgCl2, 0.2 mM spermidine, and 1 mM β-mercaptoethanol), and 0.02% DMSO; those with inhibitors also included 2.5 µM TMPyP4 or PDS. Baseline control samples consisted of 1× corresponding salt and 0.2× reaction buffer.
(§3) Samples containing DNA, salt, and buffer were placed in 95°C heat block for 10 min and cooled at room temperature for 30 min. PDS, TMPyP4, or DMSO was added and samples were incubated at 30°C for 30 min; 1.8 mL was added to a 10 mm path length cuvette and loaded into a Chirascan Plus Circular Dichroism and Fluorescence Spectrometer (Applied Photophysics). Spectra were collected between 360 and 220 nm with a step size of 1 nm. Three repeats were averaged and smoothed with a second-order polynomial with 10 neighbors on each side (Prism).
Continuous ramped thermal melts were performed at the indicated wavelengths with a 2 nm bandwidth. The temperature was increased from 20°C to 90°C at a rate of 1°C/min with a time-per-point of 12 sec. […]
For orientation: Circular dichroism is widely used to follow secondary structure.

The next test concerns 9xnoGG DNA (TGAGTG)9. Put plainly: Circular dichroism thermal melt of 9xnoGG DNA. The conditions noted are these: 10:1 small molecule:DNA; for thermal melt transition temperature: CD at 260 and 240 nm. The method, then: We performed thermal melts of 9xnoGG in Na^+ and Li^+ and monitored the signal at the predominant peaks (positive at 260 nm and negative at 240 nm). The curves were biphasic, with an initial sharp transition at ∼26°C and a minor, broader transition ∼40°C (Fig. 5E). We wondered whether the first transition might represent the dissociation of a dimeric species and collected a full CD spectrum of 9xnoGG at both 12°C and 30°C. While the spectra were very similar, the amplitudes of the positive and negative peaks at 12°C were nearly twice that of the same sample at 30°C (Supplemental Fig. S5B). CD peak attenuation is consistent with a dimer-to-monomer transition ([Kypr et al. 2009]; [Vorlíčková et al. 2012]).
as §2, §3
Continuous ramped thermal melts were performed at the indicated wavelengths with a 2 nm bandwidth. The temperature was increased from 20°C to 90°C at a rate of 1°C/min with a time-per-point of 12 sec. Positive peaks were normalized to 1 at the lowest temperature, and negative peaks were normalized to −1 at the lowest temperature. Spectra were smoothed as above.

SMILES strings stand for the structures. Where two headings read alike, the source gives them in different places.

T1 sequence (O14746 whole entry): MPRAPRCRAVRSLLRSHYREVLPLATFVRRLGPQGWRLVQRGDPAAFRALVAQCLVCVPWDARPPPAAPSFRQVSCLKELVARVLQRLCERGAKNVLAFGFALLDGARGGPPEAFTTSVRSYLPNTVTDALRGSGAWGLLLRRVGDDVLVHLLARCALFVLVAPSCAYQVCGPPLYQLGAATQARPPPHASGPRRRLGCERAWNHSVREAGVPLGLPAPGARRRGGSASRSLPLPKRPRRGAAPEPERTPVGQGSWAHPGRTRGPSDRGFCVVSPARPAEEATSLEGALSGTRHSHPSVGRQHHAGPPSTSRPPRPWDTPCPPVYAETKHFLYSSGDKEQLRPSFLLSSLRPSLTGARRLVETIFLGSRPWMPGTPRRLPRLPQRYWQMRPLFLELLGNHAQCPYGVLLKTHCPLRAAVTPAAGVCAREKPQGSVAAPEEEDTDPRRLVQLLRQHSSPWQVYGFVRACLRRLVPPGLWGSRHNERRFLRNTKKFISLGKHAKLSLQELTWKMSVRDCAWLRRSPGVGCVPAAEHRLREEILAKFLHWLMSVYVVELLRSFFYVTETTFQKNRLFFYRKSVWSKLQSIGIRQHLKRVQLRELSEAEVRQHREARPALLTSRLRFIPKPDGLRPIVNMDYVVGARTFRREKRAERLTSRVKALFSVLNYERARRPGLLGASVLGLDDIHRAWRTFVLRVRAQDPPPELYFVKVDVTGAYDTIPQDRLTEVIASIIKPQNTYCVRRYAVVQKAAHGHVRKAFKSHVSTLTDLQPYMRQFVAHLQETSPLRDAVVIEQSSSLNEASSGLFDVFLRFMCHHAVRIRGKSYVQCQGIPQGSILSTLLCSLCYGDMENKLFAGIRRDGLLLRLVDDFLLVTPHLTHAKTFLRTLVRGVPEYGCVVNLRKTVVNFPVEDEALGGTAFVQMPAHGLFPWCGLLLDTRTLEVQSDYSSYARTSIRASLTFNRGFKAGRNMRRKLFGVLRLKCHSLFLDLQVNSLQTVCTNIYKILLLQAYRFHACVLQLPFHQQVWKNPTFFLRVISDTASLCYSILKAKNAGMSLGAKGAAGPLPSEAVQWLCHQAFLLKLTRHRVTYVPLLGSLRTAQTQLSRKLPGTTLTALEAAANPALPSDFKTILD
Description for telomerase: Telomerase reactions (20 µL) contained 2 nM telomerase and 50 nM 3xTEL DNA in 1× telomerase activity buffer (50 mM Tris-HCl pH 8.0, 2 mM MgCl2, 1 mM spermidine, 5 mM β-mercaptoethanol, 75 mM KCl, and 50 mM NaCl), and dNTPs (0.5 mM dGTP, 0.5 mM dTTP, 0.33 μM [α-^32P]dATP [300 Ci mmol^–1], 3.3 μM unlabeled dATP), the indicated concentrations of TMPyP4 or PDS, and 10% DMSO. All components were mixed, and the samples were incubated at 30°C for 1 h. Reactions were quenched with 100 µL LC stop mix (3.6 M ammonium acetate, 0.2 mg mL^−1 glycogen, and a 16 nt ^32P-labeled loading control) and ethanol precipitated. Pellets were dried and dissolved in equal volumes of water and loading dye (95% formamide, 20 mM EDTA, and 0.05% each bromophenol blue and xylene cyanol), then boiled and run on a sequencing-style 10% acrylamide, 7 M urea, 1× TBE gel. The bromophenol blue dye was run to the bottom of the gel (∼1.75 h). The gel was removed from the glass plate using Whatman 3 mm paper and then dried at 80°C under a vacuum for 15–30 min. Gels were then exposed to a phosphorimager screen, which was imaged on a Typhoon FLA9500 scanner (GE Life Sciences) and analyzed by ImageQuant TL v.8.1.0.0 (GE Life Sciences). […] Relative activity was calculated by dividing normalized synthesis at each inhibitor concentration by the normalized synthesis without inhibitor. […]

As to `NCCOc1cc(C(=O)Nc2cc(OCCN)c3ccccc3n2)nc(C(=O)Nc2cc(OCCN)c3ccccc3n2)c1` [PDS, pyridostatin], the IC50 came out at 520 nM at telomerase (2 nM telomerase, 50 nM 3xTEL DNA primer, 75 mM KCl/50 mM NaCl, 30°C, 1 h, read-out: half maximal inhibitory concentration (IC50) of telomerase); 110 nM in test [1] (template 9xTEL, Li+); 140 nM in test [1] (template 9xTEL, Na+/K+); 180 nM in test [1] (template 9xnoGG, Li+); 200 nM in test [1] (template 9xnoGG, Na+/K+); 140 nM in test [2] (template 9xTEL, Li+). Further, the IC50 is 110 nM in test [2] (template 9xTEL, Na+/K+); 160 nM in test [2] (template 9xnoGG, Li+); 120 nM in test [2] (template 9xnoGG, Na+/K+). Further, the “stabilization in full spectrum thermal melt” value in the test on 9xTEL DNA (TTAGGG)9 (9xTEL in Li+) is reported as “considerable stabilization”. Moreover, in the test on 9xTEL DNA (TTAGGG)9 (9xTEL in NaCl, complex could not be entirely melted, no Tm calculated), the “stabilization of GQ secondary structure in thermal melt” value is listed as “substantial stabilization”.

As for `C[n+]1ccc(-c2c3nc(c(-c4cc[n+](C)cc4)c4ccc([nH]4)c(-c4cc[n+](C)cc4)c4ccc([nH]4)c(-c4cc[n+](C)cc4)c4nc2C=C4)C=C3)cc1` [TMPyP4], the IC50 against telomerase worked out at 6400 nM; in test [1] (template 9xTEL, Li+), 1000 nM; in test [1] (template 9xTEL, Na+/K+), 250 nM; in test [1] (template 9xnoGG, Li+) it was 310 nM; in test [1] (template 9xnoGG, Na+/K+) it was 220 nM; in test [2] (template 9xTEL, Li+), 840 nM. Moreover, the IC50 was 260 nM in test [2] (template 9xTEL, Na+/K+); 200 nM in test [2] (template 9xnoGG, Li+); 190 nM in test [2] (template 9xnoGG, Na+/K+). The “IC50synthesis in Li+ relative to Na+/K+ (fold higher)” value in test [1] (template 9xTEL) is listed as “about fourfold”. The “increase of melting temperature (Tm)” value with 9xTEL DNA (TTAGGG)9 (9xTEL in Na+, CD at 290 and 260 nm) is “about 10 °C”. Also, the “thermal melt transition temperature” value in the test with 9xnoGG DNA (TGAGTG)9 (9xnoGG in Li+) and in the test on 9xnoGG DNA (TGAGTG)9 (9xnoGG in Na+) was 52 °C throughout. Besides, the “increase of melting temperature of dimeric 9xnoGG” value with 9xnoGG DNA (TGAGTG)9 (9xnoGG) is “over 20 °C”.
